# Measured values as given in patent publication US20230226049A1, “ACALABRUTINIB MALEATE DOSAGE FORMS” (Acerta Pharma B.V., priority 2020, published 2023).
# Legend:
# [1] = Two-stage pH shift dissolution of acalabrutinib salts; assay type: physicochemical; conditions: pH shift method, both starting media; FIGS. 11 and 12
# Procedure: Phosphate, oxalate, and maleate salts of acalabrutinib were evaluated using a two-stage in vitro dissolution method known as a pH shift method. The initial medium was either deionized water or a simulated gastric fluid containing hydrochloric acid and sodium chloride and pH adjusted to 1.8. After the salts were in the initial medium for 30 minutes, the medium was then changed to a FaSSIF-V2 medium by addition of a double strength concentrate to give a final pH of 6.5. The FaSSIF-V2 medium contained a sodium phosphate buffer with sodium chloride, sodium taurocholate, and lecithin. The dissolution testing was conducted using USP dissolution apparatus 2 (paddle) operating at 50 RPM at 37 ± 0.5° C. in 250 mL of medium for first 30 minutes and then in 500 mL of medium post-shift. Samples from the dissolution medium were pulled from the aqueous phase at predetermined time points and assayed by HPLC. FIGS. 2 and 3 show the dissolution profiles of the three salts in the simulated gastric fluid/FaSSIF-V2 media and the deionized water/FaSSIF-V2 media, respectively.
# In view of the formulation challenges associated with the physical properties of the phosphate and oxalate salts, the maleate salt was re-tested in the previously described pH shift dissolution method after undergoing particle size reduction. […]
# [2] = physchem; conditions: pH 6, water
# [3] = Physicochemical properties of acalabrutinib maleate monohydrate (Table 2)
SMILES,Dissolution profile relative to unmilled maleate salt [1],solubility [2] [µg/mL],pKa ([3]; acidic),"solubility ([3]; aqueous buffer, @ pH 8 Free Base, read-out: Intrinsic solubility) [µg/mL]"
CC#CC(=O)N1CCC[C@H]1c1nc(-c2ccc(C(=O)Nc3ccccn3)cc2)c2c(N)nccn12.O=C(O)/C=C\C(=O)O [micronized maleate salt],significantly improved,,,
"CC#CC(=O)N1CCC[C@H]1c1nc(-c2ccc(C(=O)Nc3ccccn3)cc2)c2c(N)nccn12 [acalabrutinib free base, 4-{8-amino-3-[(2S)-1-(but-2-ynoyl)pyrrolidin-2-yl]imidazo[1,5-a]pyrazin-1-yl}-N-(pyridin-2-yl)benzamide]",,< 100,12.1,48
